The results in this text go back to ChEMBL document CHEMBL1139760, “Studies on a series of potent, orally bioavailable, 5-HT(1) receptor ligands” (Bioorg Med Chem Lett, 2007).

Calls of active or inactive are those of the source. No cut-off for these calls is given here.

Data set [1] addresses T1, 5-hydroxytryptamine receptor 1A (Homo sapiens, UniProt P08908).
T1 sequence (P08908 whole entry): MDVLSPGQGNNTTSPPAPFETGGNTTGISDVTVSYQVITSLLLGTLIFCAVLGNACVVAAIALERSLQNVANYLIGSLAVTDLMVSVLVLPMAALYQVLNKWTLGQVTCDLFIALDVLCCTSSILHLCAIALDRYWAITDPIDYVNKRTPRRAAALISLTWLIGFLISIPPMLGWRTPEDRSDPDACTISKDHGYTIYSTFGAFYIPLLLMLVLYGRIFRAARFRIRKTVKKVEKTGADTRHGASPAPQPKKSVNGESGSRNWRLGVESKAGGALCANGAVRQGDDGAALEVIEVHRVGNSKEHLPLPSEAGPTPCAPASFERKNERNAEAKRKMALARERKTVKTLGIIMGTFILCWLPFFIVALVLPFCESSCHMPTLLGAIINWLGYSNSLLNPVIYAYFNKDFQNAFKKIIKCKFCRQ
Description: Displacement of [3H]-WAY100635 from human recombinant 5HT1A receptor expressed in CHO cells. (In a radioligand displacement assay an active substance lowers the binding of a labelled ligand.)

Data set [2] is described as follows: Volume of distribution at steady state in rat at 1 mg/kg, iv. As to conditions: in vivo, read-out: Vdss. The class given is ADME, organism-based. Also on record: dose 1 mg/kg, route intravenous.
Data set [3] has as its target T2, Alpha-1A adrenergic receptor (Homo sapiens) (UniProt P35348).
T2 sequence (whole entry): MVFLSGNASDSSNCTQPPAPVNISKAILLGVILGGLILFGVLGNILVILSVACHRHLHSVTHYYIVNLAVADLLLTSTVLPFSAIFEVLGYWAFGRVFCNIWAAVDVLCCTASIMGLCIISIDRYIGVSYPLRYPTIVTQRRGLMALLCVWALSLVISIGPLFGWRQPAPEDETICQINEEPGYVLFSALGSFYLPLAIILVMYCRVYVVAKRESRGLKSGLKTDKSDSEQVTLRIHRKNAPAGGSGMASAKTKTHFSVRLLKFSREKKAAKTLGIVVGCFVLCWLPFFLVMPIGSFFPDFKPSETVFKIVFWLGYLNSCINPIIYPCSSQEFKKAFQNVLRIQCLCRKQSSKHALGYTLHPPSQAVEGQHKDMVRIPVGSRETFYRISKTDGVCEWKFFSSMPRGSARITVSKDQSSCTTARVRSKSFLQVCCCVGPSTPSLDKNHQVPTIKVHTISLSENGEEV
The data set can be described thus: Inhibition of adrenergic alpha1 receptor at 1 uM.

Data set [4] can be described thus: Ratio of drug level in brain to blood in rat at 3 mg/kg, po. The class given is ADME, organism-based. Also on record: dose 3 mg/kg, route oral.
For data set [5], the target named is 5-hydroxytryptamine receptor 1D (Homo sapiens, UniProt P28221). Description: Displacement of [3H]5-HT from human recombinant 5HT1D receptor expressed in CHO cells. The class given is cell-based.
Chain of 5-hydroxytryptamine receptor 1D (P28221 whole entry): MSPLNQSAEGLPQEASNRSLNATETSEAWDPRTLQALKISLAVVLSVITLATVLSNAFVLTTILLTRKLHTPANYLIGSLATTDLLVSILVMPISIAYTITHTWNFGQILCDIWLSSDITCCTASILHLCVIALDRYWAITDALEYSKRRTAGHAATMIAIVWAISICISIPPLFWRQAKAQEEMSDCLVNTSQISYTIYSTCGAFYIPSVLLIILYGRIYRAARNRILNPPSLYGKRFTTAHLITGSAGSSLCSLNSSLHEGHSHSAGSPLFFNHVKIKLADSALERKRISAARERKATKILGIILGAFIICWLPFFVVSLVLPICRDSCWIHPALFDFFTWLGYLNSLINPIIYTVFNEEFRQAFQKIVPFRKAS
The subject of data set [6] is Liver microsomes. The data set can be described thus: Metabolic stability assessed as intrinsic clearance in human liver microsomes. The class given is ADME, Microsome. (In general: Liver microsomes are vesicles of endoplasmic reticulum, rich in cytochrome P450 enzymes.)
In data set [7] the target is T3, 5-hydroxytryptamine receptor 1B (Homo sapiens, UniProt P28222). The data set can be described thus: Displacement of [3H]5-HT from human recombinant 5HT1B receptor expressed in CHO cells. The class given is cell-based.
T3 sequence (P28222 whole entry): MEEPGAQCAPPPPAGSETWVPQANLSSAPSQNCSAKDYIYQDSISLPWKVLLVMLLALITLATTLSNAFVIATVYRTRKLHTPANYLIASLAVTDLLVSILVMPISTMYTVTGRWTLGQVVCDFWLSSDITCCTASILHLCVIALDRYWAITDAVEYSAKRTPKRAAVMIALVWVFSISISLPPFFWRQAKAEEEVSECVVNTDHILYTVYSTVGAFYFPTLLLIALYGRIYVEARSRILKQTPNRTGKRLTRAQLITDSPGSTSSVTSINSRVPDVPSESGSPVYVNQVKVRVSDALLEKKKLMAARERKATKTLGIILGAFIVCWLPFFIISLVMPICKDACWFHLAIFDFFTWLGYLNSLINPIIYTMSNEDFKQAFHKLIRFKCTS
Data set [8] concerns the target T4, Muscarinic acetylcholine receptor M1 (Homo sapiens) (UniProt P11229).
T4 sequence (whole entry): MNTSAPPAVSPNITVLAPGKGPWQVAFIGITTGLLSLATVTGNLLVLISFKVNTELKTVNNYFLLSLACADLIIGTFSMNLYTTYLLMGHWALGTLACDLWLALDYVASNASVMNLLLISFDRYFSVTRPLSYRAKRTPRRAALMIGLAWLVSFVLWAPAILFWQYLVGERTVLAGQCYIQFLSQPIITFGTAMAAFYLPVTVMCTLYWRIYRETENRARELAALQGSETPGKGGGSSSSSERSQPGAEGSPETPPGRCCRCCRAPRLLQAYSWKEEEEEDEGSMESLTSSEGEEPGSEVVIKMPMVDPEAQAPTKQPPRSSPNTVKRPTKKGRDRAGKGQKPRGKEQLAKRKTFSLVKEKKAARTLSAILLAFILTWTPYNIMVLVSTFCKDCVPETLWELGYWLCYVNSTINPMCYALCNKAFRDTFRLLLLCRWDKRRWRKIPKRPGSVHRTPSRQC
Description: Inhibition of muscarinic M1 receptor at 1 uM.

The target of data set [9] is Sodium-dependent serotonin transporter (Rattus norvegicus, UniProt P31652).
Chain of Sodium-dependent serotonin transporter (P31652 whole entry): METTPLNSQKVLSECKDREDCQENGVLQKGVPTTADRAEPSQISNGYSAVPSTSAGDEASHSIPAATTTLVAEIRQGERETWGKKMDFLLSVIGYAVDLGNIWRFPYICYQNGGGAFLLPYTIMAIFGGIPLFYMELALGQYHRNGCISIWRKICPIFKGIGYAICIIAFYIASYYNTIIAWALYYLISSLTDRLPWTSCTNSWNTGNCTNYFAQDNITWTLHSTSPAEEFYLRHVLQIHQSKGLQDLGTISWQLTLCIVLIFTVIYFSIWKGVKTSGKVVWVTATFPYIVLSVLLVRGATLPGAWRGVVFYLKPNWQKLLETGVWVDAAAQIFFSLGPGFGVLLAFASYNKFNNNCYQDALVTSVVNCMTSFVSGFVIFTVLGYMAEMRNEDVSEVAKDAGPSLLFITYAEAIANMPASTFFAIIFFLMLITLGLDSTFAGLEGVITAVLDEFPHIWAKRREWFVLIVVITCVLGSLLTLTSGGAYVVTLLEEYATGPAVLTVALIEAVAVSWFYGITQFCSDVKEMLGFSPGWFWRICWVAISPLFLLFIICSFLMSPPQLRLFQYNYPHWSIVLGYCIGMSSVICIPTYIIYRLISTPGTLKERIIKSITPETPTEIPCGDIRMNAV
Description: Inhibition of [3H]5-HT uptake at SERT in rat cortical synaptosomes
Data set [10] relates to Liver microsomes. The data set can be described thus: Metabolic stability assessed as intrinsic clearance in rat liver microsomes. The class given is ADME, Microsome.
Data set [11] deals with Histamine H2 receptor (Homo sapiens) (UniProt P25021). The data set can be described thus: Inhibition of histamine H2 receptor at 1 uM.
Chain of Histamine H2 receptor (Homo sapiens) (P25021 whole entry): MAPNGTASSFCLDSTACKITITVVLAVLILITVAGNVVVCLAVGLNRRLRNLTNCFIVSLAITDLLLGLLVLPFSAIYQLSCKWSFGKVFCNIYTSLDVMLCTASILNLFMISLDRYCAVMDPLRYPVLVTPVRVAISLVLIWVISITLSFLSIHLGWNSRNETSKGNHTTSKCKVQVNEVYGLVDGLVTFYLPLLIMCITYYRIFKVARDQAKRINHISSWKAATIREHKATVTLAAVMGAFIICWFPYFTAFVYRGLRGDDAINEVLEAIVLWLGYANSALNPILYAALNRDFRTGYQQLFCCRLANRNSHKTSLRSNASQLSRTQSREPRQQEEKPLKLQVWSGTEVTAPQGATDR
The nature of data set [12]: Oral bioavailability in rat at 3 mg/kg. The class given is ADME, organism-based. As to conditions: in vivo.
In data set [13] the target is T3, 5-hydroxytryptamine receptor 1B. The data set can be described thus: Intrinsic activity at human recombinant 5HT1B receptor expressed in CHO cells by [35S]GTP-gamma-S binding assay relative to 5-hydroxytryptamine. The class given is functional, cell-based. In general terms: GTPγS resists hydrolysis and so accumulates on activated G proteins.
Data set [14] can be described thus: Half life in rat at 1 mg/kg, iv. The class given is ADME, organism-based. The arrangement: dose 1 mg/kg, route intravenous. As to conditions: in vivo.
For data set [15], the target named is T5, 5-hydroxytryptamine receptor 1A (Homo sapiens) (UniProt P08908).
T5 sequence (whole entry): T1 sequence (P08908 whole entry)
Description: Intrinsic activity at human recombinant 5HT1A receptor expressed in CHO cells by [35S]GTP-gamma-S binding assay relative to 5-hydroxytryptamine. The class given is functional, cell-based.

Data set [16] deals with T1, 5-hydroxytryptamine receptor 1A. Description: Displacement of [3H]WAY 100635 from human recombinant 5HT1A receptor expressed in CHO cells. The class given is cell-based.
Data set [17] in a line: Clearance in rat blood at 1 mg/kg, iv. The class given is ADME, organism-based. The arrangement: dose 1 mg/kg, route intravenous.

As a reminder, the Ki is the equilibrium dissociation constant of an inhibitor or competing ligand from its target. By Kp is commonly meant tissue or fluid exposure divided by exposure in the circulation. The term bioavailability denotes dose-corrected exposure relative to a reference, in per cent. What is called half-life is how long it takes for the measured level to halve. In general, clearance refers to the rate of elimination divided by the concentration. High values mean efficient removal, low ones inefficient removal. Regarding `Cc1ccc2c(OCCN3CCC(Cc4ccc5c(c4)N(C)C(=O)CO5)CC3)cccc2n1`, the Ki is 0.398 nM in data set [1]; 2.51 nM in data set [5]; 6.31 nM in data set [7]; 39.8 nM in data set [9]; 6.31 nM in data set [16]. The Vd in data set [2] came to 4.2 L/kg. The result in data set [3], in [8] and in [11] was Active. Moreover, the Kp in data set [4] turned out to be 1.3. For the same molecule, the CL with Liver microsomes [6] worked out at 0.9 mL/min/g; with Liver microsomes [10] it was 4.9 mL/min/g. This molecule came in with a bioavailability in data set [12] of 35%. For the same molecule, the Intrinsic activity was found to be 0.5 in data set [13] and 0 in data set [15]. In data set [14], this molecule had a half-life of 1.3 h. The same molecule yielded a clearance in [17] of 57 mL/min/kg.
